The subject of assay [1] is α-glucosidase. As to the kind of experiment: High-resolution α-glucosidase inhibition profiling (biochromatogram) of HPLC microfractions. The format is biochemical, Saccharomyces cerevisiae. Also noted: α-glucosidase inhibitory activity of peak in biochromatogram / α-glucosidase inhibitory activity, direct readout from the biochromatogram: concentration or dose not given beside the values. Conditions: for α-glucosidase inhibitory activity as seen in the biochromatogram of E. crotonoides extract (in words): crude defatted ethyl acetate extract, C18 column; for α-glucosidase inhibitory activity, direct readout from the biochromatogram: biochromatogram of crude defatted extract; for α-glucosidase inhibitory activity, direct readout from the biochromatogram / α-glucosidase inhibitory activity of peak in biochromatogram: relative inhibition, quantity unknown; for α-glucosidase inhibitory activity of peak in biochromatogram: microfractionation of fraction Fr.2 on PFP column. On the procedure: Thus, 0.4 mg of the extract of E. crotonoides was subjected to analytical-scale reversed-phase HPLC, and the eluate in the retention time range from 3.0 to 78.0 min was fractionated into four 96-well microplates, yielding a resolution of 4.7 data points/min (the first column of each microplate was reserved for blanks and controls). This was followed by evaporation of the HPLC eluate from all wells, reconstitution in buffer containing 10% DMSO, and assessment of the α-glucosidase inhibitory activity of all wells (final concentration of DMSO during assay = 5%). The inhibitory activities (calculated as percentage inhibition) were plotted against the retention time from the microfractionation to give the high-resolution α-glucosidase inhibition profile (biochromatogram) shown in Figure 1. The HPLC chromatogram at 254 nm is shown with the blue line (top) and the high-resolution α-glucosidase inhibition profile shown with the red line at the bottom. The high resolution of the biochromatogram allows direct correlation of HPLC peaks and peaks in the biochromatogram—thereby pinpointing peaks corresponding to compounds with α-glucosidase inhibitory activity.
(§1) Methanol and ethyl acetate used for extraction were purchased from Tedia (Fairfield, OH, USA). Formic acid was obtained from Merck (Darmstadt, Germany) and water was prepared by a deionization and 0.22-µm membrane filtration system (Milipore, Billerica, MA, USA).
Microfractionation was performed with an Agilent 1200 series instrument (Santa Clara, CA, USA) consisting of a G1316A quartenary pump, a G1322A degasser, a G1316A thermostatted column compartment, a G1315C photodiode-array detector, a G1364C fraction collector, and a G1367C high-performance auto sampler, controlled by Agilent ChemStation ver. B.03.02 software. The columns used were a Phenomenex C18(2) Luna (150 mm × 4.6 mm, 3 μm particle size, 100 Å pore size) and a Phenomenex PFP Kinetex (150 mm × 4.6 mm, 2.6 μm particle size, 100 Å pore size). For fractionation of the crude defatted ethyl acetate extract of E. crotonoides (injection: 4 μL; concentration: 100 mg/mL) the temperature was maintained at 40 °C and the flow rate at 0.5 mL/min. The solvents were a binary gradient mixture of water–acetonitrile (95:5 v/v) as eluent A and acetonitrile–water (95:5 v/v) as eluent B, both acidified with 0.1% formic acid. The following elution profile was used: 0 min, 10% B; 35 min, 26% B; 50 min, 35% B; 60 min, 40% B; 90 min, 100% B, and the eluate from 3 to 78 min was fractionated into four 96-well microplates, leading to a resolution of 4.7 data points per min. For fractionation of Fr.2 (injection: 2 μL; concentration: 33 mg/mL) the same conditions as described above were used, but with methanol and the PFP column instead of acetonitrile and the C18 column. The eluate from 8 to 30 min was fractionated into one 96-well microplate (resolution: 4.0 data points per min) using the following gradient: 0 min, 50% B; 3 min, 50% B; 34 min, 59% B; 35 min 100% B; 38 min, 100% B. The collected fractions were evaporated to dryness using a Savant SPD121P speed vacuum concentrator coupled with a RVT400 refrigerated vapor trap and an OFP-400 oil free pump (Holbrook, NY, USA). The α-glucosidase inhibitiory activity of the fractions was determined according to the previously described procedure. Briefly, the content of each well was dissolved in 100 μL of 0.1 M phosphate buffer containing 10% of DMSO and added 80 μL of the α-glucosidase solution. After incubation at 28 °C for 10 min the reaction was initiated by addition of 20 μL of PNPG (10 mM in phosphate buffer) (final volume = 200 μL and final DMSO = 5%). The cleavage product of PNPG was monitored at 405 nm for 35 min using a Multiskan FC microplate photometer (Thermo Scientific, Waltham, MA, USA) and the percentage enzyme inhibition was calculated. […]

In a further assay the target is yeast α-glucosidase. As to the kind of experiment: α-glucosidase inhibition assay, dilution series for IC50 determination (PNPG substrate). The format is biochemical, Saccharomyces cerevisiae. Conditions: for IC50: isolated compounds, means ± SD of triplicate experiments. On the procedure:
as §1
Microfractionation was performed with an Agilent 1200 series instrument (Santa Clara, CA, USA) consisting of a G1316A quartenary pump, a G1322A degasser, a G1316A thermostatted column compartment, a G1315C photodiode-array detector, a G1364C fraction collector, and a G1367C high-performance auto sampler, controlled by Agilent ChemStation ver. B.03.02 software. The columns used were a Phenomenex C18(2) Luna (150 mm × 4.6 mm, 3 μm particle size, 100 Å pore size) and a Phenomenex PFP Kinetex (150 mm × 4.6 mm, 2.6 μm particle size, 100 Å pore size). For fractionation of the crude defatted ethyl acetate extract of E. crotonoides (injection: 4 μL; concentration: 100 mg/mL) the temperature was maintained at 40 °C and the flow rate at 0.5 mL/min. The solvents were a binary gradient mixture of water–acetonitrile (95:5 v/v) as eluent A and acetonitrile–water (95:5 v/v) as eluent B, both acidified with 0.1% formic acid. The following elution profile was used: 0 min, 10% B; 35 min, 26% B; 50 min, 35% B; 60 min, 40% B; 90 min, 100% B, and the eluate from 3 to 78 min was fractionated into four 96-well microplates, leading to a resolution of 4.7 data points per min. For fractionation of Fr.2 (injection: 2 μL; concentration: 33 mg/mL) the same conditions as described above were used, but with methanol and the PFP column instead of acetonitrile and the C18 column. The eluate from 8 to 30 min was fractionated into one 96-well microplate (resolution: 4.0 data points per min) using the following gradient: 0 min, 50% B; 3 min, 50% B; 34 min, 59% B; 35 min 100% B; 38 min, 100% B. The collected fractions were evaporated to dryness using a Savant SPD121P speed vacuum concentrator coupled with a RVT400 refrigerated vapor trap and an OFP-400 oil free pump (Holbrook, NY, USA). The α-glucosidase inhibitiory activity of the fractions was determined according to the previously described procedure. Briefly, the content of each well was dissolved in 100 μL of 0.1 M phosphate buffer containing 10% of DMSO and added 80 μL of the α-glucosidase solution. After incubation at 28 °C for 10 min the reaction was initiated by addition of 20 μL of PNPG (10 mM in phosphate buffer) (final volume = 200 μL and final DMSO = 5%). The cleavage product of PNPG was monitored at 405 nm for 35 min using a Multiskan FC microplate photometer (Thermo Scientific, Waltham, MA, USA) and the percentage enzyme inhibition was calculated. The α-glucosidase inhibition of each well was plotted at their respective retention times underneath the HPLC chromatogram to obtain a high-resolution biochromatogram.
Preparative-scale fractionation was performed using an Agilent 1100 series instrument equipped with a multiple wavelength detector, an autosampler and two preparative-scale solvent delivery pumps. The column used was a Phenomenex C18(2) Luna (250 mm × 21.2 mm, 5 μm particle size, 100 Å pore size) and the gradient method was as follows: 0 min, 20% B; 27 min, 35% B; 37 min, 40% B; 40 min, 100% B; 46 min, 100% B; 47 min, 20% B; 52 min, 20% B using a binary mixture of water–acetonitrile (95:5 v/v) as eluent A and acetonitrile–water (95:5 v/v) as eluent B, both acidified with 0.1% formic acid.

The target in assay [2] is α-glucosidase. Also noted: method as in PMID 25172103. The following applies: known as a weak inhibitor; cited from earlier work.

Usually IC50 stands for the concentration at which inhibition is half-maximal. A word on the Inhibition: it is the percentage by which the read-out fell short of the control.

“Also recorded” adds a separate entry of the source. Bounds are passed on as bounds.

On to `O=C(/C=C/c1ccc(O)c(O)c1)OC[C@H]1O[C@@H](Oc2c(-c3ccc(O)c(O)c3)oc3cc(O)cc(O)c3c2=O)[C@H](O)[C@@H](O)[C@@H]1O` [Compound 12, quercetin-3-O-(6″-(E)-O-caffeoyl)-β-D-glucoside], for which the “α-glucosidase inhibitory activity as seen in the biochromatogram of E. crotonoides extract (in words)” value (from here on “α-glucosidase inhibitory activity … (in words)”) with α-glucosidase [1] is “minor”.

Consider `CCCCOC(=O)[C@]1(O)C[C@@H](O)[C@@H](OC(=O)/C=C/c2ccc(O)c(O)c2)[C@H](OC(=O)/C=C/c2ccc(O)c(O)c2)C1` [Compound 29, 4,5-di-O-caffeoylquinic acid n-butyl ester], for which, on yeast α-glucosidase, the IC50 came out at 5.2 ± 0.3 µM. For the same compound, the “α-glucosidase inhibitory activity, direct readout from the biochromatogram” value in the assay with α-glucosidase [1] is reported as 57%.

For `COc1c(-c2ccc(O)c(O)c2)oc2cc(O)cc(O)c2c1=O` [Compound 20, quercetin 3-methyl ether], the IC50 against yeast α-glucosidase stood at 20.4 ± 1.3 µM. The “α-glucosidase inhibitory activity of peak in biochromatogram” value in the assay with α-glucosidase [1] was determined as 70%.

In the case of `O=C(/C=C/c1ccc(O)c(O)c1)O[C@@H]1C[C@](O)(C(=O)O)C[C@@H](OC(=O)/C=C/c2ccc(O)c(O)c2)[C@H]1O` [Compound 9, 3,5-di-O-caffeoylquinic acid], the “α-glucosidase inhibitory activity … (in words)” value with α-glucosidase [1] is reported as “no or very low”. `CCCCOC(=O)[C@]1(O)C[C@@H](OC(=O)/C=C/c2ccc(O)c(O)c2)[C@@H](O)[C@H](OC(=O)/C=C/c2ccc(O)c(O)c2)C1` [Compound 26, 3,5-di-O-caffeoylquinic acid n-butyl ester] yielded an IC50 on yeast α-glucosidase of 5.93 ± 0.12 µM. Besides, the “α-glucosidase inhibitory activity, direct readout from the biochromatogram” value in the assay on α-glucosidase [1] is 92%. Turning to `O=c1c(O)c(-c2ccc(O)c(O)c2)oc2cc(O)cc(O)c12` [Compound 16, quercetin], the “α-glucosidase inhibitory activity of peak in biochromatogram” value in the assay on α-glucosidase [1] is listed as 82%. For the compound `O=c1cc(-c2ccc(O)c(O)c2)oc2cc(O)cc(O)c12` [Compound 19, luteolin], the IC50 on yeast α-glucosidase worked out at 59.6 ± 1.32 µM. Besides, in the assay on α-glucosidase [1], the “α-glucosidase inhibitory activity of peak in biochromatogram” value turned out to be 32%. With `O=C(/C=C/c1ccc(O)c(O)c1)O[C@@H]1[C@H](O)C[C@@](O)(C(=O)O)C[C@H]1OC(=O)/C=C/c1ccc(O)c(O)c1` [Compound 11, 4,5-di-O-caffeoylquinic acid], in the assay on α-glucosidase [1], the “α-glucosidase inhibitory activity … (in words)” value is on record as “no or very low; also recorded: minor”. Besides, the IC50 at α-glucosidase [2] is greater than 100 µM. Consider `O=C(/C=C/c1ccc(O)c(O)c1)O[C@H]1[C@H](O)C[C@](O)(C(=O)O)C[C@H]1OC(=O)/C=C/c1ccc(O)c(O)c1` [Compound 8, 3,4-di-O-caffeoylquinic acid], for which the “α-glucosidase inhibitory activity … (in words)” value with α-glucosidase [1] is given as “no or very low”. On to `O=C(/C=C/c1ccc(O)cc1)OC[C@H]1O[C@@H](Oc2c(-c3ccc(O)cc3)oc3cc(O)cc(O)c3c2=O)[C@H](O)[C@@H](O)[C@@H]1O` [Compound 17, trans-tiliroside], for which the “Inhibition at 210 μM” value in the assay with yeast α-glucosidase (210 μM) came out at 4.5%. The IC50 against yeast α-glucosidase was greater than 210 µM. Moreover, in the assay on α-glucosidase [1], the “α-glucosidase inhibitory activity of peak in biochromatogram” value amounted to 23%.

These data come from article PMC6273868, “High-Resolution α-Glucosidase Inhibition Profiling Combined with HPLC-HRMS-SPE-NMR for Identification of Antidiabetic Compounds in Eremanthus crotonoides (Asteraceae)” (Molecules, 2016).
